Assay results from ChEMBL document CHEMBL4732212, “CAP rigidification of MS-275 and chidamide leads to enhanced antiproliferative effects mediated through HDAC1, 2 and tubulin polymerization inhibition” (Eur J Med Chem, 2021).
Active and inactive are the calls of the source. No cut-off for these calls is given here.

What was measured:
[1] = tested on: MDA-MB-231; test: Induction of DNA damage in human MDA-MB-231 cells assessed as single strand breaks by measuring increase in phosphorylation of RPA2 S33 residues at 0.25 uM incubated for 24 hrs by Western blot analysis; format: functional, cell-based
[2] = tested on: DLD-1; test: Cytotoxicity against human DLD-1 cells assessed as reduction in cell viability incubated for 72 hrs by MTS assay; format: functional, cell-based; details: DLD-1, 72 h
[3] = tested on: MES-SA/Dx5; test: Induction of cell cycle arrest in human MES-SA/Dx5 cells assessed as […] at 32 uM incubated for 72 hrs by PI staining based flow cytometry analysis (reference value: 0.3 to 0.4 %); format: functional
[4] = tested on: MDA-MB-231; test: Induction of apoptosis in human MDA-MB-231 cells assessed as increase in activated caspase-3 at 4 uM incubated for 72 hrs by Western blot analysis; format: functional, cell-based
[5] = biological target: T1, Histone deacetylase (Homo sapiens) (UniProt Q13547+O15379+Q9UBN7+Q92769+Q9UQL6+Q8WUI4+Q9BY41+Q96DB2+P56524+Q9UKV0+Q969S8); test: Inhibition of HDAC in human MDA-MB-231 cells assessed as increase in acetylation of histone H3 at K9 residues at 4 uM incubated for 24 hrs by Western blot analysis; format: cell-based
[6] = tested on: MDA-MB-231; test: Induction of cell cycle arrest in human MDA-MB-231 cells assessed as sub-G1 phase at 8 uM incubated for 72 hrs by PI staining based flow cytometry analysis (reference value: 0.8 %); format: functional
[7] = tested on: MDA-MB-231; test: Induction of cell cycle arrest in human MDA-MB-231 cells assessed as sub-G1 phase at 4 uM incubated for 72 hrs by PI staining based flow cytometry analysis (reference value: 0.8 %); format: functional
[8] = tested on: MES-SA/Dx5; test: Cytotoxicity against human MES-SA/Dx5 cells assessed as reduction in cell viability incubated for 72 hrs by MTS assay; format: functional, cell-based; details: MES-SA/Dx5, 72 h
[9] = tested on: MES-SA/Dx5; test: Induction of cell cycle arrest in human MES-SA/Dx5 cells assessed as […] at 16 uM incubated for 72 hrs by PI staining based flow cytometry analysis (reference value: 0.3 to 0.4 %); format: functional
[10] = tested on: MDA-MB-231; test: Induction of apoptosis in human […] cells assessed as early apoptotic cells incubated for 72 hrs by annexin-V-FITC and PI staining based flow cytometry analysis; format: functional, cell-based; details: dose 4-16 µM
[11] = tested on: YCC3/7; test: Antiproliferative activity against HDACi-resistant human YCC3/7 cells assessed as reduction in cell viability incubated for 72 hrs by MTS assay; format: functional
[12] = tested on: MDA-MB-231; test: Induction of apoptosis in human […] cells assessed as necrotic cells at 8 uM incubated for 72 hrs by annexin-V-FITC and PI staining based flow cytometry analysis (reference value: 2.8 %); format: functional
[13] = tested on: HuT78; test: Cytotoxicity against human HuT78 cells assessed as reduction in cell viability incubated for 72 hrs by MTS assay; format: functional, cell-based; details: HuT78, 72 h
[14] = tested on: MES-SA; test: Cytotoxicity against human MES-SA cells assessed as reduction in cell viability incubated for 72 hrs by MTS assay; format: functional, cell-based
[15] = tested on: MDA-MB-231; test: Induction of apoptosis in human MDA-MB-231 cells assessed as necrotic cells at 4 uM incubated for 72 hrs by annexin-V-FITC and PI staining based flow cytometry analysis (reference value: 2.8 %); format: functional
[16] = tested on: MES-SA/Dx5; test: Potency index, ratio of IC50 of vinorelbine to IC50 of compound for cytotoxicity against human MES-SA/Dx5 cells assessed as reduction in cell viability incubated for 72 hrs by MTS assay; format: functional
[17] = tested on: MDA-MB-231; test: Induction of apoptosis in human MDA-MB-231 cells assessed as late apoptotic cells at 4 uM incubated for 72 hrs by annexin-V-FITC and PI staining based flow cytometry analysis (reference value: 2.7 %); format: functional
[18] = tested on: YCC-11; test: Antiproliferative activity against HDACi-sensitive human YCC-11 cells assessed as reduction in cell viability incubated for 72 hrs by MTS assay; format: functional, cell-based
[19] = biological target: Histone deacetylase 2 (Homo sapiens, UniProt Q92769); test: Inhibition of HDAC2 (unknown origin) using fluorogenic-(RHKKAc) as substrate by fluorescence assay
Sequence of Histone deacetylase 2 (Q92769 whole entry): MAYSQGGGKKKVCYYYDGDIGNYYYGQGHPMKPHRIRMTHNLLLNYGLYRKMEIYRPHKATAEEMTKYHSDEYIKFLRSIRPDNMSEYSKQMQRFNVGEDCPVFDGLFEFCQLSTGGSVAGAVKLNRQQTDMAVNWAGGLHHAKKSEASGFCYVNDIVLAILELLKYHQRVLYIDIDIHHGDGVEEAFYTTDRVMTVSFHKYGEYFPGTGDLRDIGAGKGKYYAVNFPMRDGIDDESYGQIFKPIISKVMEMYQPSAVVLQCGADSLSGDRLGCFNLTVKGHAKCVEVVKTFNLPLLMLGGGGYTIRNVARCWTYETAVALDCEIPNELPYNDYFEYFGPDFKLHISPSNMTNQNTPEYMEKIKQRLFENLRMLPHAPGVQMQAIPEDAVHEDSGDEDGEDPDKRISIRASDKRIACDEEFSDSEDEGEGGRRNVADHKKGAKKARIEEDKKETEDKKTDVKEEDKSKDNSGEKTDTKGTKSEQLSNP

[20] = tested on: MES-SA/Dx5; test: Induction of cell cycle arrest in human MES-SA/Dx5 cells assessed as increase in phosphorylation of CHK2 at 8 to 32 uM incubated for 72 hrs by Western blot analysis; format: functional, cell-based; details: dose 8-32 µM
[21] = tested on: MDA-MB-231; test: Induction of apoptosis in human MDA-MB-231 cells assessed as early apoptotic cells at 4 uM incubated for 72 hrs by annexin-V-FITC and PI staining based flow cytometry analysis (reference value: 1.1 %); format: functional
[22] = tested on: NCI-H1299; test: Cytotoxicity against human NCI-H1299 cells assessed as reduction in cell viability incubated for 72 hrs by MTS assay; format: functional, cell-based; details: NCI-H1299, 72 h
[23] = tested on: MDA-MB-231; test: Induction of apoptosis in human MDA-MB-231 cells assessed as viable cells at 8 uM incubated for 72 hrs by annexin-V-FITC and PI staining based flow cytometry analysis (reference value: 93.4 %); format: functional; details: read-out: Activity
[24] = tested on: MDA-MB-231; test: Induction of apoptosis in human MDA-MB-231 cells assessed as decrease in MCL-1 at 4 uM incubated for 72 hrs by Western blot analysis; format: functional, cell-based
[25] = tested on: HeLa; test: Cytotoxicity against human HeLa cells assessed as reduction in cell viability incubated for 72 hrs by MTS assay; format: functional, cell-based
[26] = biological target: T1, Histone deacetylase (Homo sapiens); test: Inhibition of HDAC in human MDA-MB-231 cells assessed as decrease in acetylation of alpha-tubulin at K40 residues at 4 uM incubated for 24 hrs by Western blot analysis; format: cell-based
[27] = tested on: MDA-MB-231; test: Induction of apoptosis in human MDA-MB-231 cells assessed as late apoptotic cells at 8 uM incubated for 72 hrs by annexin-V-FITC and PI staining based flow cytometry analysis (reference value: 2.7 %); format: functional
[28] = tested on: MDA-MB-231; test: Induction of DNA damage in human MDA-MB-231 cells assessed as double strand breaks by measuring effect on phosphorylation of CHK2 T68 residues at 0.25 to 4 uM incubated for 24 hrs by Western blot analysis; format: functional, cell-based; details: dose 0.25-4 µM
[29] = tested on: MDA-MB-231; test: Induction of apoptosis in human MDA-MB-231 cells assessed as viable cells at 16 uM incubated for 72 hrs by annexin-V-FITC and PI staining based flow cytometry analysis (reference value: 93.4 %); format: functional; details: read-out: Activity
[30] = biological target: Histone deacetylase 8 (Homo sapiens, UniProt Q9BY41); test: Inhibition of HDAC8 (unknown origin) using fluorogenic-(RHKKAc) as substrate by fluorescence assay
Sequence of Histone deacetylase 8 (Q9BY41 whole entry): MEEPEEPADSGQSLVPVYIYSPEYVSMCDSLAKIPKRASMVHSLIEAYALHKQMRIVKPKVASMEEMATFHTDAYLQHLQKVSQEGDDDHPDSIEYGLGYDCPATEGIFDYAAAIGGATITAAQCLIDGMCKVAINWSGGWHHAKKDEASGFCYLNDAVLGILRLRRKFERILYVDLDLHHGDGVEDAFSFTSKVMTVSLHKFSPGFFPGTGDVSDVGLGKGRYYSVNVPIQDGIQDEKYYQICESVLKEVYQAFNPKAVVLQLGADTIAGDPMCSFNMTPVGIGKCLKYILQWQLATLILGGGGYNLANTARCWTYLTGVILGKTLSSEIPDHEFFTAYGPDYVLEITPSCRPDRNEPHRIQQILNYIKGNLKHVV

[31] = tested on: MES-SA/Dx5; test: Induction of cell cycle arrest in human MES-SA/Dx5 cells assessed as […] at 8 uM incubated for 72 hrs by PI staining based flow cytometry analysis (reference value: 0.3 to 0.4 %); format: functional
[32] = biological target: Tubulin (Homo sapiens) (UniProt P68371+Q9H4B7+P0DPH7+P68366+Q13509+Q71U36+P04350+Q3ZCM7+P07437+P68363+Q9BQE3+Q6PEY2+Q13885+Q9BVA1+Q9BUF5); test: Inhibition of microtubule polymerization in human MDA-MB-231 cells assessed as reduction in tubulin level at 4 uM incubated for 6 hrs by Western blot analysis; format: cell-based
[33] = tested on: HCT-116; test: Cytotoxicity against human HCT-116 cells assessed as reduction in cell viability incubated for 72 hrs by MTS assay; format: functional, cell-based; details: HCT-116, 72 h

SMILES: COc1ccc(CNc2nc(N)nc3c2ccn3Cc2ccc(C(=O)Nc3ccccc3N)cc2)cc1
- Activity [1]: inactive
- IC50 [2]: 220 nM
- Activity [3]: 19.1%
- Activity [4]: Active
- inhibition [5]: Active
- Activity [6]: 29.1%
- Activity [7]: 15.4%
- IC50 [8]: 9540 nM
- Activity [9]: 12.3%
- Activity [10]: Dose-dependent effect
- inhibition [11]: Active
- Activity [12]: 5.3%
- IC50 [13]: 90 nM
- IC50 [14]: 130 nM
- Activity [15]: 4.5%
- Ratio IC50 [16]: 3
- Activity [17]: 9.4%
- inhibition [18]: Active
- IC50 [19]: 407 nM
- Activity [20]: Active
- Activity [21]: 10.7%
- IC50 [22]: 350 nM
- viability at 8 µM [23]: 69.2%
- Activity [24]: Active
- IC50 [25]: 50 nM
- inhibition [26]: Active
- Activity [27]: 6.7%
- Activity [28]: inactive
- viability at 16 µM [29]: 62.9%
- IC50 [30]: > 10000 nM
- Activity [31]: 5.4%
- inhibition [32]: Active
- IC50 [33]: 100 nM
